Data as given in patent US9982017B2, “Synthetic apelin mimetics for the treatment of heart failure” (priority 2012, dated 2018).
Where a SMILES comes first, the peptide text is derived from it. Bridges are numbered along the chain shown (N, C = ends). [ ]: non-standard residue; d: D form. Nle = CCCC[C@H](N)C(=O)O

Legend:
[1] = target: T1, hAPJ (Homo sapiens, UniProt P35414); assay: hAPJ Calcium Flux Assay; type: cell-based
T1 sequence (P35414 1-380): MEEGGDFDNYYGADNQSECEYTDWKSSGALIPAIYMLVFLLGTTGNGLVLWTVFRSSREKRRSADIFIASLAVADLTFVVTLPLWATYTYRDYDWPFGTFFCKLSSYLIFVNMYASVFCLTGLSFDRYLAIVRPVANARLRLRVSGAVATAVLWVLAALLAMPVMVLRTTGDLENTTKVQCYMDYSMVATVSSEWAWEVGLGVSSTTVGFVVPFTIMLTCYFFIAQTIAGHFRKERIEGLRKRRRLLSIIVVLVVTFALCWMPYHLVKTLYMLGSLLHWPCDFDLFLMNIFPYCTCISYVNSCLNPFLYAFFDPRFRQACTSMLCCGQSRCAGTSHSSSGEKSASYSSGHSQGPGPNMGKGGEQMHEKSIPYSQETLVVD
Procedure: Chem-5 APJ stable cells (Millipore # HTS068C) were plated in 384-well format with 10,000 cells/well in 25 ul growth media, then grown 24 hours in a 37° C. tissue culture incubator. One hour before the assay, 25 ul/well FLIPR Calcium 4 dye (Molecular Devices R8142) with 2.5 mM probenecid was added, and cells were incubated one hour in a 37° C. tissue culture incubator. Peptides were solubilized in HBSS, HEPES & 0.1% BSA buffer, and serially-diluted 10-fold, from 50 uM to 5 pM, in triplicate. FLIPR Tetra was used to add peptide to the cells with dye (1:5, for final peptide concentrations ranging from 10 uM to 1 pM). FLIPR dye inside the cells emitted fluorescence after binding to calcium, while fluorescence from outside the cells was masked. Fluorescence was measured using 470-495 excitation and 515-575 emission wavelengths on the FLIPR Tetra. Readings were done for 3 minutes total, beginning 10 seconds before the peptide addition. Maximum-minimum values were calculated and plotted for each peptide concentration, and Graph Pad prism software was used to calculate EC50 values at the curve inflection points, for calcium flux stimulation by peptides.

[2] = Surrogate Activity-Based Plasma Stability Assay (calcium flux EC50 after incubation with 5% rat plasma); details: not told
Procedure: The slope of this line, k, was determined by linear regression (Microsoft Excel). • Stability half-life was then calculated by the formula, t ½=0.693÷k Surrogate Activity-Based Plasma Stability Assay:
The calcium flux protocol described above was followed, with the following changes. The peptides were also incubated with 5% rat plasma (Bioreclamation # [sequence]-M, Na Heparin-treated). Readings were taken at time points t0 and t24 hrs, after incubation in a 37° C. tissue culture incubator. Peptide plasma half-life in minutes was estimated by calculating the following:
2) Calculate slope of value above and

Q: Which EC50 [1] does the source give for CCCC[C@@H]1NC(=O)[C@@H]2CCCN2C(=O)CNC(=O)[C@H](CCCCN)NC(=O)[C@H](Cc2ccccc2)NC(=O)[C@@H]2CSSC[C@H](NC1=O)C(=O)N[C@@H](Cc1ccccc1)C(=O)NCC(=O)NCC(=O)N[C@@H](CCC(N)=O)C(=O)N[C@@H](CCCNC(=N)N)C(=O)N1CCC[C@H]1C(=O)N[C@@H](CCCNC(=N)N)C(=O)N[C@@H](CC(C)C)C(=O)N2 [Example 7, Q-R-P-R-L-C-F-K-G-P-Nle-C-F-G-G] (cyclo(CFGGQRPRLCFKGP[Nle]); disulfide 1-10) here?
A: Its EC50 is 90.9 nM.

Q: What about the half-life [2] of the same compound?
A: The half-life was > 16.7 h.
